Experimental findings from patent US10624895B2, “Methods of sensitizing a patient with glioma to a therapeutic agent by administering small hairpin RNA targeting PDZ-RHOGEF” (THE TRANSLATIONAL GENOMICS RESEARCH INSTITUTE, priority 2016, dated 2020) are described below.

Format in all cases: cell-based, human
Experiment [1] deals with TNFR1. Put plainly: Western blot of TNFR1 expression after PPF treatment. Conditions: T98G, GBM10, GBM43 cells, 5 μM PPF, 24 hours. As to the method: (§1) FIG. 24A—a Western blot analysis of TROY expression in T98G cells. Cells were treated with PPF at indicated concentrations for 6 hrs, lysed, and cell lysates immunoblotted with anti-TROY antibody. Immunoblotting of α-Tubulin in cell lysates is included as a loading control. FIG. 24B—Western blot analysis of TROY expression in T98G, GBM43, and GBM10 cells. Cells were treated with PPF at indicated concentrations for 24 hrs, lysed, and cell lysates immunoblotted with anti-TROY and α-Tubulin antibodies. FIG. 24C—Western Blot analysis of TROY expression in GBM10 and GBM43 primary glioma cells. Cells were treated with 5 μM PPF, lysed at the indicated time-points, and the lysates immunoblotted with an anti-TROY antibody. Immunoblotting of β-Actin in cell lysates is included as a loading control. FIG. […]—Western Blot analysis of T98G, GBM10 and GBM43 glioma cells treated with 5 μM PPF for 24 hours. […]
(§2) Referring now to FIGS. 24A, 24B, 24C, and 24D: The inventors investigated if PPF could be utilized pharmacologically to decrease TROY expression in GBM cells. […] Cells were treated with increasing concentration of PPF, 1 to 20 μM lysed, and TROY expression assessed by immunobloting. […] Protein concentrations were determined using the BCA Assay (Pierce). […] Protein bands were detected using SuperSignal® Chemiluminescent Substrate (Pierce) with a UVP BioSpectrum 500 Imaging System.
In general terms: A western blot detects proteins with antibodies after separation by electrophoresis.

For experiment [2], the system named is NF-κB. The experiment in a line: Immunoblot of NF-κB activation after PPF. Conditions: T98G and GBM43 cells treated with PPF. As for the experimental part:
FIGS. 26A, 26B, and 26C depict that PPF sensitizes GBM cells to TMZ and radiotherapy. FIG. 26A—A clonogenic assay was used to assess T98G and GBM43 cells survival after TMZ and radiation treatment. Cells were pre-treated with 5 μM PPF for 24 hours, and then either treated with 250 μM TMZ for 24 hours or exposed to 2 Gy radiation. Graph depicts the surviving fraction in the treated cells compared to vehicle (VC) treated or non-treated (NT) cells, **p<0.01. FIG. 26B—T98G glioma cells were treated with vehicle, PPF (5 μM) TMZ (250 μM) and PPF in combination with TMZ. TMZ-induced apoptosis was assayed by immunoblot analysis of cell lysates with an antibody to cleaved PARP. Immunoblotting for α-Tubulin was included as a loading control. FIG. 26C—T98G, GBM10, and GBM43 cells were treated with PPF ([…], and then immunoblotted to assess the activation of AKT and NF-κB. Immunoblotting for β-Actin is included as a loading control.
Referring now to FIGS. 26A, 26B, and 26C: Knockdown of TROY expression with shRNA decreases TMZ resistance in GBM cells in vitro (See Reference 42). […] Following combination therapy, cells were trypsinized, counted, and plated in a 6-well culture dish at densities of 100, 250, and 500 cells per well in triplicate. Cells were incubated for 12 days then fixed, stained with 0.5% crystal violet solution, and counted manually by blinded observers. […]

Experiment [3] deals with EGFR. Put plainly: Western blot of EGFR expression after PPF treatment. As to conditions: T98G, GBM10, GBM43 cells, 5 μM PPF, 24 hours. As for the experimental part:
as §1, §2

The test system of experiment [4] is TROY. The experiment in a line: Western blot of TROY expression after PPF treatment. As for the experimental part:
FIG. 24A—a Western blot analysis of TROY expression in T98G cells. Cells were treated with PPF at indicated concentrations for 6 hrs, lysed, and cell lysates immunoblotted with anti-TROY antibody. Immunoblotting of α-Tubulin in cell lysates is included as a loading control. FIG. 24B—Western blot analysis of TROY expression in T98G, GBM43, and GBM10 cells. Cells were treated with PPF at indicated concentrations for 24 hrs, lysed, and cell lysates immunoblotted with anti-TROY and α-Tubulin antibodies. FIG. 24C—Western Blot analysis of TROY expression in GBM10 and GBM43 primary glioma cells. Cells were treated with 5 μM PPF, lysed at the indicated time-points, and the lysates immunoblotted with an anti-TROY antibody. Immunoblotting of β-Actin in cell lysates is included as a loading control. FIG. […]—Western Blot analysis of T98G, GBM10 and GBM43 glioma cells treated with 5 μM PPF for 24 hours. Lysates were immunoblotted with anti-TROY, anti-TNFR1, anti-EGFR, and β-Actin antibodies.
Referring now to FIGS. 24A, 24B, 24C, and 24D: The inventors investigated if PPF could be utilized pharmacologically to decrease TROY expression in GBM cells. The long-term established cell line T98G was first utilized to test the efficacy of PPF. Cells were treated with increasing concentration of PPF, 1 to 20 μM lysed, and TROY expression assessed by immunobloting. Briefly, monolayers of cells were washed in phosphate-buffered saline (PBS) containing 1 mM phenylmethylsulfonylfluoride and 1 mM sodium orthovanadate and then lysed in 2×SDS sample buffer containing protease and phosphatase inhibitors. Protein concentrations were determined using the BCA Assay (Pierce). Thirty micrograms of total protein was loaded per lane and separated by SDS-PAGE. After transfer, the nitrocellulose membrane (Invitrogen) was blocked with either 5% nonfat-milk or 5% BSA in TB ST before addition of primary antibodies and followed with peroxidase-conjugated secondary antibody (Promega). Protein bands were detected using SuperSignal® Chemiluminescent Substrate (Pierce) with a UVP BioSpectrum 500 Imaging System.

With `CCCn1cnc2c1c(=O)n(CCCCC(C)=O)c(=O)n2C` [PPF, 3-methyl-1-(5-oxohexyl)-7-propyl-3,7-dihydro-1H-purine-2,6-dione], the TNFR1 expression result in experiment [1] was “did not affect the expression”. Further, in experiment [2], the NF-κB phosphorylation entry was “effectively decreased”. Further, the EGFR expression result in experiment [3] is given as “did not affect the expression”. In experiment [4] (GBM10 and GBM43 cells, 5 μM PPF, varying lengths of time), the “TROY expression over time” value is given as “decreased in a time-dependent manner”. Also, the TROY expression entry is recorded as “significant suppression” in experiment [4] (T98G cells, 1 μM PPF); “decreased in concentration dependent manner” in experiment [4] (T98G cells, PPF 1 to 20 μM, 6 hrs); “effective in lowering TROY expression” in experiment [4] (T98G, GBM10, GBM43 cells, 5 μM PPF, 24 hrs).
